The text below walks through data of ChEMBL document CHEMBL3045843, “Binding of Nicotinoids and the Related Compounds to the Insect Nicotinic Acetyicholine Receptor” (J Pestic Sci, 1992).

Where only a bound is given, the exact number is not on record here.

Series [1] is described as follows: Displacement of [3H]alpha-bungarotoxin from nAChR in honeybee head membrane after 60 min by scintillation counting. The class given is cell membranes, Apis mellifera. Background: Loss of bound radioactivity is the signal in a displacement assay; it reports binding, not function.
Series [2] concerns the target T1, Nicotinic acetylcholine receptor alpha 5 subunit (Musca domestica, UniProt A9XFY4).
T1 sequence (A9XFY4 whole entry): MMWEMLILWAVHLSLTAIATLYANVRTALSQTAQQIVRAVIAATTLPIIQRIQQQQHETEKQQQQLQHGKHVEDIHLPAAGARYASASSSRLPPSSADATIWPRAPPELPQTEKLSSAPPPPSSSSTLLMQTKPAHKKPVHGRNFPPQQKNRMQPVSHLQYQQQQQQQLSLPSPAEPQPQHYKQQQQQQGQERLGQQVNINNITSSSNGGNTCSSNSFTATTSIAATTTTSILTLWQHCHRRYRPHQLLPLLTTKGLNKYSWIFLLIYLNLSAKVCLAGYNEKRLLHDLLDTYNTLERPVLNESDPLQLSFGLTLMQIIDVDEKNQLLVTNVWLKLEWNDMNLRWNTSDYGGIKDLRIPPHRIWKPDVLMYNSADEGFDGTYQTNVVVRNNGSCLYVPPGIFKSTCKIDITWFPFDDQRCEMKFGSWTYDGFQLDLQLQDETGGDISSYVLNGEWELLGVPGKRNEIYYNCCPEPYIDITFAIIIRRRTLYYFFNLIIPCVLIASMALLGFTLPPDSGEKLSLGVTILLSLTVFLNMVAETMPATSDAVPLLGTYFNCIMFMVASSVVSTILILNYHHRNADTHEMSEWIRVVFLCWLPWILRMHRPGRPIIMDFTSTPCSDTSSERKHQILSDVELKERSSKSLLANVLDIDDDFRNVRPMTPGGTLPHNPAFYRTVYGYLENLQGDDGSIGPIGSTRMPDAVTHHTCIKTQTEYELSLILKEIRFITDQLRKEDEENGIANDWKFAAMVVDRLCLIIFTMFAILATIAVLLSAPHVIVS
As to the kind of experiment: Displacement of [3H]alpha-bungarotoxin from nAChR in Musca domestica (house fly) head membrane after 60 min by scintillation counting.

The next series deals with Acetylcholinesterase (Musca domestica, UniProt Q7YWJ9). As to the kind of experiment: Inhibition of Musca domestica (house fly) acetylcholinesterase.
Sequence of Acetylcholinesterase (Q7YWJ9 whole entry): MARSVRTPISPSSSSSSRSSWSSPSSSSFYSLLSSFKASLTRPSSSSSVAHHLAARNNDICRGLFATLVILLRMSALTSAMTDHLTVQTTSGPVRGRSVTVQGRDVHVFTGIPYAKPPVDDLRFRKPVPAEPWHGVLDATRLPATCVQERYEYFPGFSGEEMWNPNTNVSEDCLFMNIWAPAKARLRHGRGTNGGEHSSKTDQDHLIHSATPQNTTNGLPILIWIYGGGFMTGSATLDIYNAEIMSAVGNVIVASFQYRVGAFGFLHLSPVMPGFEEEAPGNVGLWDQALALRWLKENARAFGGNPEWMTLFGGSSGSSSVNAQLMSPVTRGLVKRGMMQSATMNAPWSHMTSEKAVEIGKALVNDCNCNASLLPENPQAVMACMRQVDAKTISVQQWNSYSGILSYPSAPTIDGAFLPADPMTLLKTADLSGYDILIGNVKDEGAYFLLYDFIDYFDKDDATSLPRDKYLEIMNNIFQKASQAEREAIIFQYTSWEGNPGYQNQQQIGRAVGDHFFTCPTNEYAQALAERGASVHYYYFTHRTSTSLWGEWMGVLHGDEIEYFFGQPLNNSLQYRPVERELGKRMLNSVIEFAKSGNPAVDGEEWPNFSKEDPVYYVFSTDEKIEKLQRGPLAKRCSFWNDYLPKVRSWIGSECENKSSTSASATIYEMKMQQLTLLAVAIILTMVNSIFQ
The nature of series [3]: Disocciation constant, pKa of the compound at 37 degC. The class given is physicochemical.
The next series relates to Musca domestica. As to the kind of experiment: Insecticidal activity against Musca domestica (house fly) assessed as mortality relative to nicotine. The class given is functional.
Series [4] is described as follows: Disocciation constant, pKa of the compound at 25 degC. The class given is physicochemical.

In general, Ki refers to a dissociation constant, usually derived from enzyme kinetics or from competition with a known ligand. With `CN(C)Cc1ccncc1`, the Ki in series [1] and in series [2] was > 1000 µM each time.
A word on the IC50: it is the point on the concentration scale where inhibition reaches its midpoint. By pKa is commonly meant the negative logarithm of the acid dissociation constant. In the case of `CCN(CC)Cc1ccccn1`, at Acetylcholinesterase, the IC50 amounted to 3000 µM. The pKa in series [3] was 8.42. The “fold change (FC)” value in the series with Musca domestica was 0.1.
The matching figures for `CCN(CC)Cc1ccncc1`: 7700 µM, 7.96 and 0.1.
`CN(C)Cc1ccccn1`: the inhibition constant Ki in series [1] and in series [2] was > 1000 µM throughout.
Regarding `CCNCc1cccnc1`, the inhibition constant (Ki) in series [1] stood at 289 µM; in series [2], 380 µM. For the same molecule, the IC50 against Acetylcholinesterase was found to be 7100 µM. In series [3], the pKa amounted to 8.96. Besides, in the series on Musca domestica, the “fold change (FC)” value was 0.34.
The matching figures for `CCCNCc1cccnc1`: > 1000 µM, > 1000 µM, 17000 µM, 8.38 and 0.15.
Consider `CC(C)NCc1cccnc1`, for which the figures for the inhibition constant (Ki) in series [1] and in series [2] were 103 µM and 226 µM, respectively. Moreover, the IC50 at Acetylcholinesterase amounted to 3900 µM. The pKa in series [3] was 8.46. Also, the “fold change (FC)” value in the series on Musca domestica was 0.46.
On to `CCCCNCc1cccnc1`, for which the Ki in series [1] was 406 µM; in series [2] it was > 1000 µM. Moreover, on Acetylcholinesterase, the IC50 came to 23000 µM. In series [3], the pKa came to 8.66. Also, in the series with Musca domestica, the “fold change (FC)” value amounted to 0.16.
Regarding `CCN(CC)Cc1cccnc1`, the Ki stood at 155 µM in series [1] and 450 µM in series [2]. This molecule gave an IC50 on Acetylcholinesterase of 890 µM. This molecule showed a pKa in series [3] of 8.12. The “fold change (FC)” value in the series with Musca domestica turned out to be 0.46.
The matching figures for `CCCN(CCC)Cc1cccnc1`: 200 µM, 220 µM, 1700 µM, 8.13 and 0.16.
With `CCCCN(CCCC)Cc1cccnc1`, the Ki in series [1] is 175 µM; in series [2] it was > 1000 µM. It took 2800 µM to reach half-maximal inhibition at Acetylcholinesterase (IC50). For the same molecule, the pKa in series [3] came out at 8.08. Further, the “fold change (FC)” value in the series with Musca domestica was determined as 0.28.
As to `c1cncc(CN2CCCCC2)c1`, the Ki in series [1] was determined as 48.7 µM; in series [2], 67.6 µM. The molecule further returned an IC50 on Acetylcholinesterase of 1500 µM. In addition, the pKa in series [3] was 8.16. In addition, the “fold change (FC)” value with Musca domestica was found to be 0.79.
As for `c1cncc(CN2CCOCC2)c1`, the inhibitory constant (Ki) in series [1] and in series [2] was > 1000 µM in each case. This molecule yielded a pKa in series [3] of 5.76. Further, the “fold change (FC)” value in the series with Musca domestica was determined as 0.04.
`CCOc1ccccc1Cn1nc(OC)oc1=O`: the Ki in series [1] and in series [2] was > 100 µM in each case.
Take `COc1nn(-c2ccc(C)cc2OC)c(=O)o1`: the Ki in series [1] and in series [2] was > 1000 µM throughout.
As to `N#C/N=C1/NCCN1/C=N/c1ccccc1`, the Ki in series [1] and in series [2] was > 500 µM in each case.
As for `O=[N+]([O-])C(/C=N/c1ccccc1)=C1NCCN1`, the Ki in series [1] and in series [2] was > 500 µM throughout.
As for `CN(C)Cc1cccnc1`, the Ki amounted to 208 µM in series [1] and 201 µM in series [2]. The same molecule registered an IC50 at Acetylcholinesterase of 5100 µM. For the same molecule, in series [3], the pKa amounted to 7.76. In the series on Musca domestica, the “fold change (FC)” value is reported as 0.45.
Regarding `CNCc1cccnc1`, the results for the Ki in series [1] and in series [2] were 377 µM and 600 µM, respectively. On Acetylcholinesterase, this molecule displayed an IC50 of 31000 µM. The pKa in series [3] is 8.3. Moreover, the “fold change (FC)” value with Musca domestica was 0.3.
Take `c1cncc(C2CCCCN2)c1` (racemic) [DL-ANABASINE]: the “fold change (FC)” value with Musca domestica worked out at 0.6.
Turning to `CN1CCC[C@H]1c1cccnc1` (racemic) [NICOTINE], at Acetylcholinesterase, the midpoint of inhibition, the IC50, lay at 620 µM. For the same molecule, in the series on Musca domestica, the “fold change (FC)” value stood at 1.
As for `c1cncc([C@@H]2CCCN2)c1` (racemic) [NORNICOTINE], the Ki in series [1] was found to be 7.61 µM; in series [2], 8.77 µM. It took 9700 µM to reach half-maximal inhibition against Acetylcholinesterase (IC50). In addition, the “fold change (FC)” value in the series on Musca domestica was 0.3.
As to `O=[N+]([O-])C=C1NCCN1` [2-(NITROMETHYLENE)IMIDAZOLIDINE], the inhibitory constant (Ki) in series [1] and in series [2] was > 1000 µM throughout.
Consider `c1cncc([C@@H]2CCCCN2)c1` [ANABASINE], for which the pKa in series [4] is 8.7; in series [3], 8.48.
Take `COC(=O)C1=CCCN(C)C1` [ARECOLINE]: the inhibition constant (Ki) in series [1] was determined as 240 µM; in series [2], 516 µM.
The matching figures for `CN1[C@@H]2CC[C@H]1C[C@@H](OC(=O)C(CO)c1ccccc1)C2` (stereo partly drawn) [ATROPINE]: 26.3 µM and 32.5 µM.
In the case of `C[N+](C)(C)CCOC(N)=O` [CARBACHOL], the inhibition constant Ki was determined as 175 µM in series [1] and 212 µM in series [2].
In the same order, the values of `CCC[C@H]1CCCCN1` [CONIINE] are 262 µM and > 1000 µM.
Take `CN1C(=O)CC[C@H]1c1cccnc1` [COTININE]: the Ki in series [1] and in series [2] was > 1000 µM in each case. In series [4], this molecule gave a pKa of 4.5. The “fold change (FC)” value with Musca domestica was found to be 0.03.
`O=c1cccc2n1C[C@@H]1CNC[C@H]2C1` [CYTISINICLINE]: the results for the Ki in series [1] and in series [2] were 0.65 µM and 1.23 µM, respectively.
The matching figures for `C[N+](C)(C)CCCCCCCCCC[N+](C)(C)C` [DECAMETHONIUM]: 224 µM and 103 µM.
For `C1=C(c2cccnc2)NCC1` [DIHYDRONICOTYRINE], the values for the inhibitory constant (Ki) in series [1] and in series [2] were 1.27 µM and 1.92 µM, respectively. Also, the values for the pKa in series [4] and in series [3] were 7.4 and 7.21, respectively. At Acetylcholinesterase, this molecule showed an IC50 of 350 µM. Also, the “fold change (FC)” value with Musca domestica amounted to 2.6.
For `C[N+]1(C)CCN(c2ccccc2)CC1` [DIMETHYLPHENYLPIPERAZINIUM], the Ki in series [1] amounted to 49.5 µM; in series [2] it was 86.3 µM.
Consider `c1cncc(C2CCCCN2)c1` (stereo not drawn) [DL-ANABASINE], for which the values for the Ki in series [1] and in series [2] were 3.91 µM and 3.71 µM, respectively. The molecule further returned an IC50 against Acetylcholinesterase of 3900 µM.
As to `O=[N+]([O-])/N=C1\NCCN1Cc1ccc(Cl)nc1` [IMIDACLOPRID], the inhibition constant (Ki) in series [1] was 2.53 µM; in series [2], 7.47 µM.
In the same order, the values of `CN1[C@@H](CC(=O)c2ccccc2)CCC[C@H]1C[C@H](O)c1ccccc1` [LOBELINE] are 9.13 µM and 12.8 µM.
Turning to `CNC1(C)C2CCC(C2)C1(C)C` (stereo not drawn) [MECAMYLAMINE], the Ki in series [1] is 453 µM; in series [2], > 1000 µM.
As for `c1cncc(C2=NCCC2)c1` [MYOSMINE], the inhibition constant Ki in series [1] and in series [2] was > 1000 µM each time. Moreover, the results for the pKa in series [4] and in series [3] were 5.5 and 5.23, respectively. Further, the IC50 against Acetylcholinesterase is 6800 µM. Further, in the series on Musca domestica, the “fold change (FC)” value came to 0.36.
For the molecule `c1cncc(CN2CCCC2)c1` [N-(3-PYRIDYLMETHYL)PYRROLIDINE], the inhibition constant Ki is 14.3 µM in series [1] and 16.4 µM in series [2]. The same molecule returned a 50% inhibitory concentration (IC50) against Acetylcholinesterase of 1400 µM. The pKa in series [3] stood at 8.11. Further, the “fold change (FC)” value in the series on Musca domestica is reported as 0.43.
For `CN(C)C1CSSC1` [NEREISTOXIN], the Ki was 254 µM in series [1] and 187 µM in series [2].
As to `CN1CCC[C@H]1c1cccnc1` [NICOTINE], the Ki came to 1.48 µM in series [1] and 2.48 µM in series [2]. Besides, the pKa in series [4] came out at 7.9; in series [3] it was 7.66. This molecule showed an IC50 against Acetylcholinesterase of 2600 µM.
As for `Cn1cccc1-c1cccnc1` [NICOTYRINE], the Ki in series [1] and in series [2] was > 1000 µM each time. In addition, the pKa is 4.7 in series [4] and 4.5 in series [3]. Also, on Acetylcholinesterase, half-maximal inhibition (IC50) was put at 2300 µM. Further, the “fold change (FC)” value with Musca domestica was determined as 0.18.
Consider `c1cncc([C@@H]2CCCN2)c1` [NORNICOTINE], for which the values for the pKa in series [4] and in series [3] were 9 and 8.76, respectively. For the same molecule, 4200 µM corresponded to half-maximal inhibition on Acetylcholinesterase (IC50).
Turning to `C[N+]1(CCCCC[N+]2(C)CCCC2)CCCC1` [PENTOLINIUM], the Ki in series [1] is 72.2 µM; in series [2] it was 108 µM.
As for `CN1CCC[C@@H]1c1cccnc1` [R-NICOTINE], the Ki in series [1] turned out to be 43.7 µM; in series [2], 59.9 µM. On Acetylcholinesterase, this molecule displayed an IC50 of 230 µM. The “fold change (FC)” value in the series on Musca domestica came to 1.
For the molecule `O=C1N(Cc2ccccc2)C2C[S+]3CCCC3C2N1Cc1ccccc1` (stereo not drawn) [TRIMETHAPHAN], the Ki in series [1] is 5.79 µM; in series [2] it was 2.75 µM.
With `COc1cc2c3cc1Oc1cc(ccc1O)C[C@@H]1c4c(cc(OC)c(O)c4Oc4ccc(cc4)C[C@@H]3N(C)CC2)CC[N+]1(C)C` [TUBOCURARINE], the Ki was found to be 3.57 µM in series [1] and 1.88 µM in series [2].
